Holding throughout (format): cell-based
For one assay, the system named is E. coli EC114, ST 131. As to the kind of experiment: Broth microtiter dilution MIC, EC114. The conditions noted are these: Escherichia coli, TEM-1 (A), CTX-M-15 (A), OXA-1 (D), read-out: MIC (mg/liter) for β-lactam. As for the experimental part:
(§1) The in vitro activity of cyclic boronate 2 was assessed using nine clinical isolates carrying multiple β-lactamases (Table 3). The isolates selected included Enterobacteriaceae (E. coli ST 131, Klebsiella pneumoniae ST 258, and Providencia stuartii) producing class A ESBLs (CTX-M-15, CTX-M-27, SHV-5, and VEB-1), serine carbapenemase (KPC-2) and metallo-carbapenemases (VIM-1 and VIM-2), plasmid-mediated AmpC (CMY-2), and/or carbapenem-hydrolyzing OXA-48-like oxacillinases (OXA-181 and OXA-232) in various combinations. The activity against carbapenemase-producing strains of Pseudomonas aeruginosa (VIM-2) and Acinetobacter baumannii (OXA-23) was also investigated. All isolates have previously undergone extensive phenotypic and genotypic characterization ([60]).
(§2) MICs were determined using commercial Sensititre GN4F panels (Thermo Scientific, UK; lot B55051) and Mueller-Hinton II cation-adjusted broth (Oxoid, UK), with and without the addition of cyclic boronate 2 at a fixed concentration of 10 μg/ml. Plates were incubated at 37°C for 18 h and MICs read by eye following the addition of alamarBlue reagent (Trek Diagnostics).

Another assay has as its system E. coli EC86. The experiment in a line: Broth microtiter dilution MIC, EC86. Conditions: E. coli EC86, CTX-M-15 (A), CMY-4 (C), OXA-181 (D). As for the experimental part:
as §1, §2

A further assay has as its system P. stuartii PS71. The experiment in a line: Broth microtiter dilution MIC, PS71. The conditions noted are these: Providencia stuartii, TEM-1 (A), SHV-5 (A), VEB-1 (A), VIM-1 (B), read-out: MIC (mg/liter) for β-lactam. The procedure: as §1, §2
Another assay relates to E. coli EC113, ST 131. As to the kind of experiment: Broth microtiter dilution MIC, EC113. The conditions noted are these: Escherichia coli, CTX-M-27 (A), read-out: MIC (mg/liter) for β-lactam. The procedure:
as §1, §2

The subject of another assay is K. pneumoniae KP41. As to the kind of experiment: Broth microtiter dilution MIC, KP41. The conditions noted are these: Klebsiella pneumoniae, TEM-1, SHV-1, SHV-5, SHV-11, CTX-M-15 (A), OXA-232 (D), read-out: MIC (mg/liter) for β-lactam. As for the experimental part:
as §1, §2

For the next assay, the system named is A. baumannii AB14. The experiment in a line: Broth microtiter dilution MIC, AB14. Conditions: Acinetobacter baumannii, OXA-23 (D), OXA-51 (D), read-out: MIC (mg/liter) for β-lactam. The procedure: as §1, §2
For a further assay, the system named is E. coli EC107, ST 131. The experiment in a line: Broth microtiter dilution MIC, EC107. The conditions noted are these: Escherichia coli, CTX-M-15 (A), OXA-1 (D), read-out: MIC (mg/liter) for β-lactam. As for the experimental part: as §1, §2
Assay [1] concerns P. aeruginosa PA12, ST 111. As to the kind of experiment: Broth microtiter dilution MIC, PA12. The conditions noted are these: Pseudomonas aeruginosa, VIM-2 (B), read-out: MIC (mg/liter) for β-lactam. As for the experimental part:
as §1, §2

For another assay, the system named is K. pneumoniae KP15. The experiment in a line: Broth microtiter dilution MIC, KP15. Conditions: Klebsiella pneumoniae, TEM-1 (A), SHV-11 (A), KPC-2 (A), read-out: MIC (mg/liter) for β-lactam. The procedure: as §1, §2
Another assay deals with K. pneumoniae (KP58). The procedure: (§3) Combination discs (Oxoid) were prepared with a fixed ratio of 2:1 between the β-lactam (μg) and cyclic boronate 2. Zones of inhibition around combined and unsupplemented discs were compared following overnight incubation on MH II plates.
For the next assay, the system named is K. pneumoniae (KP41). The procedure: as §3
Another assay has as its system K. pneumoniae (KP15). As for the experimental part:
as §3

A further assay relates to K. pneumoniae KP58. As to the kind of experiment: Broth microtiter dilution MIC, KP58. Conditions: Klebsiella pneumoniae, SHV-11 (A), VIM-4 (B), read-out: MIC (mg/liter) for β-lactam. As for the experimental part:
as §1, §2

Setting [2] is: with cyclic boronate 2 (10 mg/liter) supplementation.
Where [3] appears, read: without cyclic boronate 2 supplementation.

Molecules are shown by their SMILES. Read-outs that look alike come from different tables or passages of the source.

As for `CCN1CCN(C(=O)N[C@@H](C(=O)N[C@@H]2C(=O)N3[C@@H]2SC(C)(C)[C@@H]3C(=O)O)c2ccccc2)C(=O)C1=O` [PIP, piperacillin], the MIC with E. coli EC114, ST 131 (setting [2]) was greater than 64 mg/L; in the assay with E. coli EC114, ST 131 (setting [3]), greater than 64 mg/L; in the assay on E. coli EC86 (Escherichia coli, with cyclic boronate 2 (10 mg/liter) supplementation, read-out: MIC (mg/liter) for β-lactam), greater than 64 mg/L; in the assay on P. stuartii PS71 (setting [2]), greater than 64 mg/L; in the assay on P. stuartii PS71 (setting [3]) it was greater than 64 mg/L; in the assay with E. coli EC113, ST 131 (setting [2]), no more than 16 mg/L. Moreover, the MIC was greater than 64 mg/L in the assay with E. coli EC113, ST 131 (setting [3]); greater than 64 mg/L with K. pneumoniae KP41 (setting [2]); greater than 64 mg/L with K. pneumoniae KP41 (setting [3]); greater than 64 mg/L in the assay on A. baumannii AB14 (setting [2]); greater than 64 mg/L in the assay on A. baumannii AB14 (setting [3]); greater than 64 mg/L in the assay with E. coli EC107, ST 131 (setting [2]). Besides, the MIC is greater than 64 mg/L in the assay with E. coli EC107, ST 131 (setting [3]); 64 mg/L in assay [1] (setting [2]); greater than 64 mg/L in [1] (setting [3]); greater than 64 mg/L with K. pneumoniae KP15 (setting [2]); greater than 64 mg/L in the assay on K. pneumoniae KP15 (setting [3]); greater than 64 mg/L in the assay on K. pneumoniae KP58 (setting [2]). The MIC with K. pneumoniae KP58 (setting [3]) is greater than 64 mg/L. In addition, in the assay on E. coli EC86 (setting [3]), the “MIC (mg/liter) for β-lactam” value is greater than 64 mg/L. For the same molecule, the “Synergy When Combined with (2): Fixed 2:1 µg Ratio” value in the assay on K. pneumoniae (KP58) is reported as “Y”; in the assay on K. pneumoniae (KP41), “N”; with K. pneumoniae (KP15), “Y”.

Values taken from publication PMC5365654, “Cyclic Boronates Inhibit All Classes of β-Lactamases” (Antimicrobial Agents and Chemotherapy, 2017).
